According to ChEMBL document CHEMBL4152318, “Halogenated quinolines bearing polar functionality at the 2-position: Identification of new antibacterial agents with enhanced activity against Staphylococcus epidermidis” (Eur J Med Chem, 2018):
Converted amounts (≈) assume the structure as drawn.

Columns and labels:
Enterococcus faecium [1] = experiment: Antibacterial activity against vancomycin-resistant Enterococcus faecium ATCC 700221 after 16 to 18 hrs by broth microdilution method; format: functional
Staphylococcus aureus [2] = experiment: Antibacterial activity against methicillin-resistant Staphylococcus aureus BAA-1707 after 16 to 18 hrs by broth microdilution method; format: functional
[3] = system: Staphylococcus epidermidis; experiment: Antibacterial activity against methicillin-resistant Staphylococcus epidermidis ATCC 35984 after 16 to 18 hrs by broth microdilution method; format: functional
HeLa = experiment: Cytotoxicity against human HeLa cells after 24 hrs by LDH release assay; format: cell-based
Staphylococcus aureus [4] = experiment: Potency index, ratio of TPEN MIC to compound MIC for antibacterial activity against methicillin-resistant Staphylococcus aureus BAA-1707; format: functional
[5] = Selectivity ratio of MIC for methicillin-resistant Staphylococcus aureus BAA-1707 to MIC for methicillin-resistant Staphylococcus epidermidis ATCC 35984; format: functional
[6] = Selectivity index, ratio of IC50 for cytotoxicity against human HeLa cells to MIC for antibacterial activity against methicillin-resistant Staphylococcus epidermidis ATCC 35984; format: toxicity, cell-based; conditions: read-out: Selectivity Index
[7] = Selectivity ratio of MIC for vancomycin-resistant Enterococcus faecium ATCC 700221 to MIC for methicillin-resistant Staphylococcus epidermidis ATCC 35984; format: functional
[8] = system: Staphylococcus epidermidis; experiment: Potency index, ratio of TPEN MIC to compound MIC for antibacterial activity against methicillin-resistant Staphylococcus epidermidis ATCC 35984; format: functional
Staphylococcus aureus [9] = experiment: Antibiofilm activity against methicillin-resistant Staphylococcus aureus BAA-1707 after 24 hrs by CBD assay; format: functional
[10] = Hemolytic activity against human RBC at 200 uM after 1 hr relative to control; format: ADME, cell-based, Erythrocyte; conditions: red blood cells (erythrocytes), read-out: Activity
[11] = system: Staphylococcus epidermidis; experiment: Antibiofilm activity against methicillin-resistant Staphylococcus epidermidis ATCC 35984 after 24 hrs by CBD assay; format: functional
Enterococcus faecium [12] = experiment: Bactericidal activity against vancomycin-resistant Enterococcus faecium ATCC 700221 planktonic cells after 24 hrs by CBD assay; format: functional; conditions: ATCC 700221, 24 h
Enterococcus faecium [13] = experiment: Antibiofilm activity against vancomycin-resistant Enterococcus faecium ATCC 700221 after 24 hrs by CBD assay; format: functional
Staphylococcus aureus [14] = experiment: Bactericidal activity against methicillin-resistant Staphylococcus aureus BAA-1707 planktonic cells after 24 hrs by CBD assay; format: functional; conditions: BAA-1707, 24 h
[15] = system: Staphylococcus epidermidis; experiment: Bactericidal activity against methicillin-resistant Staphylococcus epidermidis ATCC 35984 planktonic cells after 24 hrs by CBD assay; format: functional; conditions: ATCC 35984, 24 h

Structure (SMILES)	MIC (Enterococcus faecium [1]) [µM]	MIC (Staphylococcus aureus [2]) [µM]	MIC [3] [µM]	IC50 (HeLa) [µM]	Ratio (Staphylococcus aureus [4])	Selectivity ratio [5]	selectivity ratio [6]	Selectivity ratio [7]	Ratio [8]	MBEC (Staphylococcus aureus [9]) [µM]	hemolysis at 1 h, 200 µM [10] [%]	MBEC [11] [µM]	MBC (Enterococcus faecium [12]) [µM]	MBEC (Enterococcus faecium [13]) [µM]	MBC (Staphylococcus aureus [14]) [µM]	MBC [15] [µM]
OCc1cn(Cc2ccc3c(Br)cc(Br)c(O)c3n2)nn1	> 100	> 100	> 100	–	–	–	–	–	–	–	–	–	–	–	–	–
CCCNCc1ccc2c(Br)cc(Br)c(O)c2n1	3.13 (≈ 1.17 µg/mL)	2.35 (≈ 0.879 µg/mL)	–	> 100	–	–	–	–	–	–	–	–	–	–	–	–
Oc1c(Br)cc(Br)c2ccc(CN3CCNCC3)nc12	50 (≈ 20.1 µg/mL)	25 (≈ 10 µg/mL)	12.5 (≈ 5.01 µg/mL)	–	–	–	–	–	–	–	–	–	–	–	–	–
C#CCNCc1ccc2c(Br)cc(Br)c(O)c2n1	1.56 (≈ 0.577 µg/mL)	3.13 (≈ 1.16 µg/mL)	0.3 (≈ 0.111 µg/mL)	> 25	16 - 42	> 2	> 83	> 2	16 - 42	–	–	–	–	–	–	–
CN[C@H](CC(C)C)C(=O)N[C@H]1C(=O)N[C@@H](CC(N)=O)C(=O)N[C@H]2C(=O)N[C@H]3C(=O)N[C@H](C(=O)N[C@H](C(=O)O)c4cc(O)cc(O)c4-c4cc3ccc4O)[C@H](O)c3ccc(c(Cl)c3)Oc3cc2cc(c3O[C@@H]2O[C@H](CO)[C@@H](O)[C@H](O)[C@H]2O[C@H]2C[C@](C)(N)[C@H](O)[C@H](C)O2)Oc2ccc(cc2Cl)[C@H]1O [VANCOMYCIN]	> 100	–	–	–	–	–	–	–	–	>2000	≤ 1	>2000	> 200	150	3.9 (≈ 5.65 µg/mL)	3 (≈ 4.35 µg/mL)
OCc1ccc2c(Br)cc(Br)c(O)c2n1	25 (≈ 8.32 µg/mL)	100 (≈ 33.3 µg/mL)	37.5 (≈ 12.5 µg/mL)	> 100	–	–	> 2.7	–	–	–	–	–	–	–	–	–
COCCOCc1ccc2c(Br)cc(Br)c(O)c2n1	–	–	1.56 (≈ 0.61 µg/mL)	> 100	–	–	–	–	–	–	–	–	–	–	–	–
CC(=O)NC[C@H]1CN(c2ccc(N3CCOCC3)c(F)c2)C(=O)O1 [LINEZOLID]	3.13 (≈ 1.06 µg/mL)	12.5 (≈ 4.22 µg/mL)	3.13 (≈ 1.06 µg/mL)	–	–	–	–	–	–	–	–	–	–	–	–	–
CCCCCCCCCC(=O)N[C@@H](Cc1c[nH]c2ccccc12)C(=O)N[C@@H](CC(N)=O)C(=O)N[C@@H](CC(=O)O)C(=O)N[C@@H]1C(=O)NCC(=O)N[C@@H](CCCN)C(=O)N[C@@H](CC(=O)O)C(=O)N[C@H](C)C(=O)N[C@@H](CC(=O)O)C(=O)NCC(=O)N[C@H](CO)C(=O)N[C@@H]([C@H](C)CC(=O)O)C(=O)N[C@@H](CC(=O)c2ccccc2N)C(=O)O[C@@H]1C [DAPTOMYCIN]	3.13 (≈ 5.07 µg/mL)	3.13 (≈ 5.07 µg/mL)	12.5 (≈ 20.3 µg/mL)	–	–	–	–	–	–	–	–	–	–	–	–	–
CC(C)(C)OC(=O)NCCOCCOCCNCc1ccc2c(Br)cc(Br)c(O)c2n1	6.25 (≈ 3.52 µg/mL)	12.5 (≈ 7.04 µg/mL)	3.13 (≈ 1.76 µg/mL)	–	–	–	–	–	–	–	–	–	–	–	–	–
C[C@H](NC(=O)OC(C)(C)C)C(=O)N1CCN(Cc2ccc3c(Br)cc(Br)c(O)c3n2)CC1	6.25 (≈ 3.58 µg/mL)	3.13 (≈ 1.79 µg/mL)	3.13 (≈ 1.79 µg/mL)	–	–	–	–	–	–	–	–	–	–	–	–	–
NCCOCCOCCNCc1ccc2c(Br)cc(Br)c(O)c2n1	50 (≈ 23.2 µg/mL)	37.5 (≈ 17.4 µg/mL)	25 (≈ 11.6 µg/mL)	–	–	–	–	–	–	–	–	–	–	–	–	–
COCCOCCOCc1ccc2c(Br)cc(Br)c(O)c2n1	3.13 (≈ 1.36 µg/mL)	2.35 (≈ 1.02 µg/mL)	0.78 (≈ 0.339 µg/mL)	> 100	16 - 42	> 2	> 128	> 2	16 - 42	200	4.1	75	6.25 (≈ 2.72 µg/mL)	2.35	50 (≈ 21.8 µg/mL)	25 (≈ 10.9 µg/mL)
Oc1c(Br)cc(Br)c2ccc(CN3CCOCC3)nc12	3.13 (≈ 1.26 µg/mL)	1.56 (≈ 0.627 µg/mL)	0.59 (≈ 0.237 µg/mL)	> 100	16 - 42	> 2	> 169	> 2	16 - 42	>200	2.6	2.35	1.56 (≈ 0.627 µg/mL)	1.17	25 (≈ 10.1 µg/mL)	4.69 (≈ 1.89 µg/mL)
CC(C)(C)OC(=O)NCC(=O)N1CCN(Cc2ccc3c(Br)cc(Br)c(O)c3n2)CC1	12.5 (≈ 6.98 µg/mL)	25 (≈ 14 µg/mL)	9.38 (≈ 5.24 µg/mL)	–	–	–	–	–	–	–	–	–	–	–	–	–
Cc1ccc2c(Br)cc(Br)c(O)c2n1 [BROQUINALDOL]	3.13 (≈ 0.992 µg/mL)	–	1.17 (≈ 0.371 µg/mL)	> 100	–	–	–	–	–	–	–	–	–	–	–	–
CCCc1ccc2c(Br)cc(Br)c(O)c2n1	0.78 (≈ 0.269 µg/mL)	0.39 (≈ 0.135 µg/mL)	0.59 (≈ 0.204 µg/mL)	> 50	–	–	> 85	–	–	–	–	–	–	–	–	–
CCCCOCc1ccc2c(Br)cc(Br)c(O)c2n1	12.5 (≈ 4.86 µg/mL)	2.35 (≈ 0.914 µg/mL)	0.3 (≈ 0.117 µg/mL)	> 50	16 - 42	> 2	> 167	> 2	16 - 42	–	2.8	75	–	–	–	37.5 (≈ 14.6 µg/mL)
Oc1c(Br)cc(Br)c2ccc(CNc3ccccc3)nc12	0.78 (≈ 0.318 µg/mL)	0.39 (≈ 0.159 µg/mL)	0.15 (≈ 0.0612 µg/mL)	100	–	–	667	–	–	–	–	–	–	–	–	–
c1ccc(CN(CCN(Cc2ccccn2)Cc2ccccn2)Cc2ccccn2)nc1	–	46.9 (≈ 19.9 µg/mL)	12.5 (≈ 5.31 µg/mL)	–	–	–	–	–	–	>2000	≤ 1	>2000	–	–	375 (≈ 159 µg/mL)	250 (≈ 106 µg/mL)
COCCOCCOCCOCc1ccc2c(Br)cc(Br)c(O)c2n1	–	2.35 (≈ 1.13 µg/mL)	2.35 (≈ 1.13 µg/mL)	100	–	–	–	–	–	–	–	–	–	–	–	–
CC(C)(C)OC(=O)N1CCN(Cc2ccc3c(Br)cc(Br)c(O)c3n2)CC1	0.59 (≈ 0.296 µg/mL)	0.78 (≈ 0.391 µg/mL)	0.3 (≈ 0.15 µg/mL)	> 100	–	–	> 333	–	–	18.8	2.8	6.25	4.69 (≈ 2.35 µg/mL)	1.56	18.8 (≈ 9.42 µg/mL)	37.5 (≈ 18.8 µg/mL)
